Earlier results on two molecules are cited in patent publication US4970081A, “Controlled-release, low-dose aspirin formulation and method of treating vascular occlusive disease therewith” (Sterling Drug Inc., priority 1989, dated 1990).

SMILES strings stand for the structures.

The conditions of data set [1]: prior art dosage forms.
A further data set deals with prostacyclin (PC). The following applies: 1 mg every 30 minutes for 10 hours.
In the next data set the test system is thromboxane B2 (TX). The following applies: 1 mg every 30 minutes for 10 hours; at 10 hours.
Data set [2] concerns vascular occlusive events. Conditions: oral aspirin, patients.
In data set [3] the test system is cyclooxygenase in platelets. The following applies: by acetylating cyclooxygenase in platelets.
For data set [4], the system named is endothelial cyclooxygenase. The following applies: at the doses given in most clinical trials.

With `Nc1ccc(S(N)(=O)=O)cc1` [Sulfanilamide], in data set [1], the release rate is reported as 4.5 mg per hour.

As to `CC(=O)Oc1ccccc1C(=O)O` [aspirin], in the data set with prostacyclin (PC), the “urinary PC” value is on record as “unaltered”. The “decrease in serum TX” value with thromboxane B2 (TX) is reported as 66%. In addition, in data set [2], the “protection from vascular occlusive events” value is “statistically significant protection”. The “effect on platelet adhesiveness” value in data set [3] is reported as “significantly decreases platelet adhesiveness”. The “effect on endothelial cyclooxygenase” value in data set [4] is “inhibits endothelial cyclooxygenase”.
